How the values were obtained:
[1] = tested on: Gloeophyllum trabeum (ATCC 11539); experiment: AWPA E10-01 laboratory soil-block culture decay test of treated southern pine blocks; assay type: cell-based; settings: for Mean percent weight loss (s.d. in parentheses), G. trabeum: unleached southern pine blocks, 12 weeks, n = 5
Method: (§1) The decay resistance of southern pine treated with six experimental wood preservative formulations and exposed to two brown rot fungal species were tested using the AWPA E10-01 “Standard Method of Testing Wood Preservatives by Laboratory Soil-Block Cultures.” For this, conditioned blocks of wood are treated with suitable solutions of preservative. After a conditioning period, the wood blocks are exposed to a recognized destructive species of wood-destroying fungi. The minimum amount of preservative that protects the wood blocks against decay by a given fungus is defined as the threshold retention for that organism. Failure to protect is evidenced by loss of mass from the treated wood blocks, as indicated by a loss of weight.
(§2) Preparation of wood. Southern pine sapwood (Pinus spp.) with 6-10 rings/inch and clear of knots or other obvious defects was used. The wood was milled into test blocks of 19 mm×19 mm×19 mm. The test cubes were divided into density groups of ±5%, with 5 blocks per treatment or control. One feeder strip is needed for each block in a culture bottle. The sapwood selected for feeder strips should be capable of furnishing a satisfactory growth of the test fungus. Southern pine sapwood feeder strips were cut to approximately 3 by 28 by 34 mm with the grain of the wood parallel to either of the long dimensions and with the edge grain (radial surface) exposed to the flat face, insofar as possible.
(§3) The test blocks were pressure treated with the test preservatives, solvent alone, or two control wood preservatives, ACQ-Type D and propiconazole […] according to procedures detailed in AWPA Standard E7-01. Several of the compounds detailed in Table 1 are commercially available from Novus International, Saint Louis, Mo. (i.e., the composition abbreviated Biox AUSD is a blend of organic acid, inorganic acid and HMTBA and is sold under the trade name ACTIVATE® US WD; the compound abbreviated Biox C is HMBTA-Cu and is sold under the trade name MINTREX® Cu; the compound Biox C/Biox SE is a blend of ethoxyquin and HMTBA-Cu; the compound abbreviated Biox SE is ethoxyquin emulsion; the compound abbreviated Biox T is an antioxidant blend sold under the trade name TOXGUARD®, and the compound abbreviated Biox Z is HMTBA-Zn is sold under the trade name MINTREX® Zn).
(§4) Briefly, a full cell pressure process, simulating commercial practice as far as possible with laboratory plant equipment, using an initial vacuum, suitable temperature, and an appropriate pressure period was used. The amount of preservative absorbed by the block, i.e., the retention, was calculated for each preservative. After the test blocks were treated and weighed to obtain absorption, they were exposed to open laboratory conditions until the solvent evaporated and the moisture content was relatively stable. Then they were placed in a conditioning room for 21 days. The blocks were tested in the unleached condition.
(§5) Preparation of soil culture bottles. A soil substrate with a water holding capacity between 20% and 40% and a pH between 5.0 and 8.0 was used. The soil substrate, sifted and lightly compacted by tapping, was placed in 8-oz cylindrical culture bottles fitted with screw caps without liners. The bottles were about half-full. This amount of soil, about 118 ml for an 8-oz. culture bottle, weighed not less than 90 g when oven-dried. […] The soil was leveled and one feeder strip per block was placed in each bottle. The soil-filled bottles were autoclaved for 30 min (one time), with the caps loosened. Lids on jars with a breather hole were covered with a strip of cloth first-aid tape.
(§6) Preparation of test cultures. […] Sections (e.g., 10 mm squares) were cut from near the leading edge of mycelium in petri dish cultures and placed in contact with an edge of a feeder strip on the soil of the culture bottles.

[2] = tested on: Postia placenta (Madison 698); experiment: as above; assay type: cell-based; settings: for Mean percent weight loss (s.d. in parentheses), P. placenta: unleached southern pine blocks, 12 weeks, n = 5
Method: as §1, §2, §3, §4, §5, §6

[3] = over all Biox C retentions, ethanolamine retention 36 kg/m^3, no observable dose response

Row | Structure (SMILES) | weight losses, G. trabeum [1, 3] | Mean percent weight loss (s.d. in parentheses), G. trabeum ([1]; retention 0.05 kg/m^3) | Mean percent weight loss (s.d. in parentheses), G. trabeum ([1]; retention 0.10 kg/m^3) | Mean percent weight loss (s.d. in parentheses), G. trabeum ([1]; retention 0.50 kg/m^3) | Mean percent weight loss (s.d. in parentheses), G. trabeum ([1]; retention 2.00 kg/m^3) | weight losses, P. placenta [2, 3] [%] | Mean percent weight loss (s.d. in parentheses), P. placenta ([2]; retention 0.05 kg/m^3) | Mean percent weight loss (s.d. in parentheses), P. placenta ([2]; retention 0.10 kg/m^3) | Mean percent weight loss (s.d. in parentheses), P. placenta ([2]; retention 0.50 kg/m^3) | Mean percent weight loss (s.d. in parentheses), P. placenta ([2]; retention 2.00 kg/m^3) | Mean percent weight loss (s.d. in parentheses), G. trabeum ([1]; retention 0.010 kg/m^3) | Mean percent weight loss (s.d. in parentheses), G. trabeum ([1]; retention 0.025 kg/m^3) | Mean percent weight loss (s.d. in parentheses), P. placenta ([2]; retention 0.010 kg/m^3) | Mean percent weight loss (s.d. in parentheses), P. placenta ([2]; retention 0.025 kg/m^3)
1 | CSCCC(O)C(=O)[O-].CSCCC(O)C(=O)[O-].[Cu+2] (centres unmarked) [Biox C, copper bis(2-hydroxy-4-methylthio)butanoic acid] | approximately 6.5% | 5.5 (0.7) % | 6.9 (1.8) % | 6.1 (0.7) % | 10.2 (5.3) % | ~5.0 | 4.5 (0.8) % | 5.0 (1.0) % | 6.1 (0.4) % | 5.1 (0.7) % |  |  |  | 
2 | CSCCC(O)C(=O)[O-].CSCCC(O)C(=O)[O-].[Zn+2] (centres unmarked) [Biox Z] |  | 38.8 (3.3) % | 26.4 (8.5) % | 28.9 (15.2) % | 27.8 (6.1) % |  | 50.4 (2.9) % | 47.7 (5.1) % | 42.6 (23.8) % | 26.1 (23.2) % |  |  |  | 
3 | CC(C)(C)C(O)(CCc1ccc(Cl)cc1)Cn1cncn1 (centres unmarked) [Tebuconazole, reference compound] |  | 3.2 (1.3) % | 1.0 (0.4) % |  |  |  | 15.5 (13.6) % | 2.8 (3.1) % |  |  | 15.5 (3.7) % | 11.8 (8.3) % | 24.9 (21.8) % | 22.4 (17.4) %
